From US20250114430A1, “MODIFIED PEPTIDOMIMETICS AND METHODS OF USE” (The University of North Carolina at Chapel Hill, priority 2021, published 2025)
Entries after “also recorded” stand apart in the source; their conditions may differ. No end group written: not given here.

Experiments:
[1] = in vitro; format: in vitro ADME; conditions: human, serum
Protocol: We injected mice intraperitoneally with E. coli LPS, followed by 0.5 mg/kg ELD607 injected intravenously 1 h later.

[2] = tested on: NFAT; assay: NFAT-GFP relocation to the nucleus in HEK293T cells after stimulation of SOCE; format: cell-based; conditions: thapsigargin
Excerpt: To determine whether ELD607 internalized Orai1, total internal reflection fluorescence (TIRF) microscopy was used to measure Orai1 in the plasma membrane. […] However, ELD607 reduced Orai1 plasma membrane expression by ˜50% (FIG. 26, panels A-B). […] We expressed NFAT-GFP in HEK293T cells and evaluated the ability of ELD607 to attenuate NFAT relocation to the nucleus after stimulation of SOCE by confocal microscopy. ELD607 reduced the percentage of NFAT in the nucleus by greater than 50% (FIG. 26, panels C-D).

[3] = tested on: P. aeruginosa; assay: Murine model of P. aeruginosa bacterial pneumonia; format: in vivo, mice
Protocol: FIGS. 15A-15D show (FIG. 15A) a schematic of a murine model of P. aeruginosa (top left panel), and bar graphs of (FIG. 15B) BAL monocytes, (FIG. 15C) BAL neutrophils, and (FIG. 15D) bacterial counts in whole lung at 24 hours quantified following experiments according to the mouse model as schematized and conditions as noted on the x-axis.
FIGS. 16A-16G show data from further P. aeruginosa infection experiments. […] Increased inflammation is seen in infection as indicated in the alveolar/gas exchange regions of the lungs which show alveolar damage and thickening that prevent gas exchange. ELD607 treatment normalized alveoli histology similar to naïve lung conditions.
Mice were exposed to vehicle or P. aeruginosa±ELD607 and BAL was obtained and stained with an anti-Orai1 antibody, fluorescent 2° and DAPI. […] FIG. 16G panels B and C show plots showing fluorescence intensities of Orai1 in macrophages and neutrophils, respectively. ***p<0.001 different as indicated. ND=no detectable neutrophils in these groups.
Further in vivo experiments were performed. […] Bronchoalveolar lavage (BAL) and organ collection was performed 24 hours following treatment with peptide (FIG. 15A). […] Moreover, 24 h after infection, about 10^9 CFUs could be detected in murine whole lung homogenate. However, ELD607 caused an ˜5 log10 reduction in lung bacteria (FIG. 15D).
Mice were exposed to vehicle or P. aeruginosa±ELD607 and BAL was obtained and stained with an anti-Orai1 antibody, fluorescent 2° and DAPI. […] FIG. 16G panels B and C show plots showing fluorescent intensities of Orai1 in macrophages and neutrophils, respectively.
To examine Orai1 levels, BAL was then obtained from P. aeruginosa-infected mice, immediately cytospun, fixed in PFA and stained with an antibody against Orai1.

[4] = tested on: αSMA; assay: αSMA deposition in primary myofibroblasts from IPF patients; format: cell-based, human; conditions: primary myofibroblasts from five IPF patients
Protocol: Each pair of point represents paired data from 5 different IPF donors.
In vitro Methods: Fibroblasts were exposed to 10 nM TFGβ for 3-7 days as indicated. Then, ELD607 was added overnight. Fibroblasts were then fixed in paraformaldehyde, stained with primary a smooth muscle actin (αSMA) antibody, and imaged by confocal microscopy. Myofibroblasts were exposed to ELD607 without any TGFβ pre-treatment. In some cases, Western blotting was used to probe for αSMA.

[5] = tested on: immune cells from tracheal aspirates of ARDS/bacterial pneumonia patients; assay: Thapsigargin-induced cytosolic Ca^2+ in immune cells from ARDS/bacterial pneumonia patients; format: cell-based, human; conditions: Fluo-4, 1 h exposure
Protocol: We next obtained tracheal aspirates from intubated ARDS/bacterial pneumonia patients. We immediately isolated immune cells from these samples and simultaneously loaded them with the Ca^2+ dye Fluo-4 and exposed them to vehicle, ELD607 or scrambled peptide for 1 h.

[6] = tested on: Primary human bronchial epithelial cultures; assay: Cytotoxicity and transepithelial resistance in primary human bronchial epithelial cultures; format: cell-based; conditions: 1 mM, 24 h
Protocol: FIG. 28 panels C and D show cell viability per arbitrary units (left) and transepithelial resistance (right) of vehicle vs. ELD607 before and after treatment.
ELD607 is non-toxic in vitro and in vivo. To investigate potential cytotoxic effects of ELD607, […] were exposed to 100 μM ELD607 for 24 h. Cytotoxicity was assessed by exposing cells to calcein to label live cells and fluorescence read by multi-plate reader. […] Primary human bronchial epithelial cultures were exposed to 1 mM ELD607 or vehicle control (saline) for 24 h. Cytotoxicity was assessed by confocal microscopy using calcein and propidium iodide to label live and dead cells respectively. […] Transepithelial resistance was also measured before and after treatment as a measure of epithelial integrity.

[7] = format: in vitro ADME, human
Excerpt: ELD607 is active in ARDS patient immune cells. Pulmonary neutrophilic inflammation and increased lung neutrophil elastase levels are common in ARDS patient lungs. We therefore evaluated whether ELD607 remained stable in BAL samples patients with ARDS caused by bacterial pneumonia. […] (FIG. 27, panel A).

[8] = biological target: T1, Orai1/store operated Ca^2+ influx (Homo sapiens, UniProt Q96D31); assay: Store operated Ca^2+ influx in HEK293T cells (Example 2); format: cell-based; conditions: a6 and ELD607 combined
T1 construct: Endogenous Orai1/store operated Ca^2+ influx have been extensively studied in HEK293T cells; endogenous in cells; host or cells: HEK293T
Excerpt: Endogenous Orai1/store operated Ca^2+ influx have been extensively studied in HEK293T cells, so this cell type was used to understand ELD607-Orai1 interactions. […] Thapsigargin is a SERCA pump inhibitor that prevents uptake of cytosolic Ca^2+ into the endoplasmic reticulum. Thapsigargin is commonly used to stimulate Orai1/store operated Ca^2+ influx. […] Dynamic light scattering (DLS) was used to evaluate binding of ELD607 to peptides of Orai1 extracellular loops. […] Thus, it was concluded that ELD607 interacts with Orai1.

[9] = tested on: HEK293T cells; assay: Cytoplasmic Ca^2+ (Fluo-4) in HEK293T cells incubated with ELD peptides; format: cell-based; conditions: 2 hours with Fluo-4 plus or minus peptide
[10] = tested on: SARS-CoV-2 S1 pseudovirus; format: cell-based
[11] = 10^7 CFU, 0.51 mg/kg intranasal

T1 sequence (Q96D31 whole entry): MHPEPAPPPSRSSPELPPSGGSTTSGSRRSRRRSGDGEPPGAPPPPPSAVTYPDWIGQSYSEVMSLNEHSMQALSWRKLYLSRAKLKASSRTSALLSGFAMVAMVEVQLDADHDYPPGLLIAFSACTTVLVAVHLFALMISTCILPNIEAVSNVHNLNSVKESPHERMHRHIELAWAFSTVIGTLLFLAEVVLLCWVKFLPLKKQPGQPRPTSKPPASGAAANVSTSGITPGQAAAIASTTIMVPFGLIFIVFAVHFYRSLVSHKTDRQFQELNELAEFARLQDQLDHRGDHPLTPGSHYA

VHDIVNMLIRG [ELD607, VHDIVNMLIRG]
remaining at 4 h [1]: 100% | reduction of the percentage of NFAT in the nucleus [2]: greater than 50% | BAL monocytes ([3]; 10^7 CFU intratracheally, 0.51 mg/kg peptide intranasal 1 hour later, 24 hours): significantly retained monocyte levels | BAL lactate dehydrogenase (LDH) [3, 11]: significantly reduced | BAL neutrophil elastase [3, 11]: significantly reduced | BAL total protein [3, 11]: significantly reduced | BAL neutrophils ([3]; 10^7 CFU, 0.51 mg/kg intranasal, 24 hours): reduced neutrophil levels | survival ([3]; 10^9 CFU/ml P. aeruginosa, 48 hours post-infection): significantly improved survival | bacterial counts in the spleen ([3]; 24 hours post ELD607 treatment): reduced bacterial counts in the spleen | BAL neutrophils, delayed treatment ([3]; ELD607 added 24 hours after infection): reduced | BAL Macrophage Inflammatory Protein 2 (MIP-2) ([3]; P. aeruginosa infected mice): reduced | BAL interleukin-17 (IL-17) ([3]; P. aeruginosa infected mice): reduced | BAL keratinocytes-derived chemokine (KC) ([3]; P. aeruginosa infected mice): reduced | IL-6 ([3]; P. aeruginosa infected mice): reduced | interleukin-1β (IL-1β) ([3]; P. aeruginosa infected mice): reduced | lung histology ([3]; P. aeruginosa infected mice): normalization of alveoli | tumor necrosis factor-α (TNF-α) ([3]; P. aeruginosa infected mice): reduced | weight loss ([3]; intranasal 10^7 CFU/ml P. aeruginosa, 24 hours): prevented the total weight loss | Orai1 levels in BAL cells (anti-Orai1 staining) ([3]; naïve and P. aeruginosa-infected mice): reduces Orai1 in murine BAL macrophages; also recorded: significant decrease in Orai1 levels | reduction in lung bacteria ([3]; whole lung homogenate, 24 h after infection): ~5 log10 | αSMA deposition [4]: significantly reduces αSMA deposition | thapsigargin elevation of cytosolic Ca^2+ [5]: not after exposure to ELD607 | cytotoxicity (calcein and propidium iodide) [6]: not significantly different to vehicle control | transepithelial resistance ([6]; before and after treatment): No differences were found | stability in ARDS BAL [7]: remained stable over 8 h | additivity of inhibitory effects of a6 and ELD607 on thapsigargin-induced elevations in cytosolic Ca^2+ [8]: not additive | cytoplasmic calcium levels as compared to a control scrambled peptide [9]: reduced cytoplasmic calcium levels | pseudovirus infection (% DsRed-positive cells) [10]: significantly reduced infection
